From ChEMBL document CHEMBL1201862, “PubChem BioAssay data set” (2004)
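Dose response: 5 concentrations. Exposure: 48 h. Format: 96-well plates. Endpoint: linear interpolation; highest concentration if not reached. GI50: concentration for 50% inhibition of growth.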 The source made the active and inactive calls. Rule as the data show it: active = GI50 up to about 1.1 µM and inactive = higher.

Legend:
Assay in all cases: NCI anticancer screen, dose series, 48 h
M14 = test system: M14
LXFL 529 = test system: LXFL 529
OVCAR-5 = test system: OVCAR-5
Malme-3M = test system: Malme-3M
COLO 205 = test system: COLO 205
HOP-62 = test system: HOP-62
ACHN = test system: ACHN
HT-29 = test system: HT-29
SK-MEL-2 = test system: SK-MEL-2
LOX IMVI = test system: LOX IMVI
OVCAR-8 = test system: OVCAR-8
DLD-1 = test system: DLD-1
SNB-78 = test system: SNB-78
HCT-116 = test system: HCT-116
786-0 = test system: 786-0
NCI-H23 = test system: NCI-H23
HL-60 = test system: HL-60
A498 = test system: A498
RXF 393 = test system: RXF 393
RPMI-8226 = test system: RPMI-8226
SK-MEL-28 = test system: SK-MEL-28
NCI-H460 = test system: NCI-H460
HCC 2998 = test system: HCC 2998
M19-MEL = test system: M19-MEL
UACC-257 = test system: UACC-257
TK-10 = test system: TK-10
UACC-62 = test system: UACC-62
SF-539 = test system: SF-539
K562 = test system: K562
SNB-75 = test system: SNB-75
RXF 631 = test system: RXF 631
SK-MEL-5 = test system: SK-MEL-5
SW-620 = test system: SW-620
KM-20L2 = test system: KM-20L2
U-251 = test system: U-251
SNB-19 = test system: SNB-19
KM12 = test system: KM12
UO-31 = test system: UO-31
DMS-114 = test system: DMS-114
HOP-92 = test system: HOP-92
SK-OV-3 = test system: SK-OV-3
A549 = test system: A549
NCI-H522 = test system: NCI-H522
OVCAR-3 = test system: OVCAR-3
IGROV-1 = test system: IGROV-1
EKVX = test system: EKVX
CCRF-CEM = test system: CCRF-CEM
MOLT-4 = test system: MOLT-4
NCI-H226 = test system: NCI-H226
SN12C = test system: SN12C
HOP-18 = test system: HOP-18
SR = test system: SR
SF-295 = test system: SF-295
T47D = test system: T47D
MDA-MB-231 = test system: MDA-MB-231
SF-268 = test system: SF-268
XF498 = test system: XF498
BT-549 = test system: BT-549
MDA-N = test system: MDA-N
PC-3 = test system: PC-3
OVCAR-4 = test system: OVCAR-4
NCI/ADR-RES = test system: NCI/ADR-RES
DU-145 = test system: DU-145
MDA-MB-435 = test system: MDA-MB-435
Hs-578T = test system: Hs-578T
CAKI-1 = test system: CAKI-1
MCF7 = test system: MCF7
DMS-273 = test system: DMS-273

COC(=O)C(CC(C)C)NC(=O)NC12CC3CC(CC(F)(C3)C1)C2 (stereo not drawn)
GI50 (M14): > 100000 nM (inactive)
GI50 (LXFL 529): > 100000 nM (inactive)
GI50 (OVCAR-5): > 100000 nM (inactive)
GI50 (Malme-3M): > 100000 nM (inactive)
GI50 (COLO 205): > 100000 nM (inactive)
GI50 (HOP-62): > 100000 nM (inactive)
GI50 (ACHN): > 100000 nM (inactive)
GI50 (HT-29): > 100000 nM (inactive)
GI50 (SK-MEL-2): > 100000 nM (inactive)
GI50 (LOX IMVI): > 100000 nM (inactive)
GI50 (OVCAR-8): > 100000 nM (inactive)
GI50 (DLD-1): > 100000 nM (inactive)
GI50 (SNB-78): > 100000 nM (inactive)
GI50 (HCT-116): > 100000 nM (inactive)
GI50 (786-0): > 100000 nM (inactive)
GI50 (NCI-H23): > 100000 nM (inactive)
GI50 (HL-60): > 100000 nM (inactive)
GI50 (A498): > 100000 nM (inactive)
GI50 (RXF 393): > 100000 nM (inactive)
GI50 (RPMI-8226): > 100000 nM (inactive)
GI50 (SK-MEL-28): > 100000 nM (inactive)
GI50 (NCI-H460): > 100000 nM (inactive)
GI50 (HCC 2998): 29300 nM (inactive)
GI50 (M19-MEL): > 100000 nM (inactive)
GI50 (UACC-257): > 100000 nM (inactive)
GI50 (TK-10): > 100000 nM (inactive)
GI50 (UACC-62): > 100000 nM (inactive)
GI50 (SF-539): > 100000 nM (inactive)
GI50 (K562): > 100000 nM (inactive)
GI50 (SNB-75): 27100 nM (inactive)
GI50 (RXF 631): > 100000 nM (inactive)
GI50 (SK-MEL-5): > 100000 nM (inactive)
GI50 (SW-620): > 100000 nM (inactive)
GI50 (KM-20L2): > 100000 nM (inactive)
GI50 (U-251): > 100000 nM (inactive)
GI50 (SNB-19): > 100000 nM (inactive)
GI50 (KM12): > 100000 nM (inactive)
GI50 (UO-31): 46600 nM (inactive)
GI50 (DMS-114): > 100000 nM (inactive)
GI50 (HOP-92): 50600 nM (inactive)
GI50 (SK-OV-3): > 100000 nM (inactive)
GI50 (A549): > 100000 nM (inactive)
GI50 (NCI-H522): > 100000 nM (inactive)
GI50 (OVCAR-3): > 100000 nM (inactive)
GI50 (IGROV-1): > 100000 nM (inactive)
GI50 (EKVX): > 100000 nM (inactive)
GI50 (CCRF-CEM): > 100000 nM (inactive)
GI50 (MOLT-4): > 100000 nM (inactive)

CN(C)CCCCCNc1c2ccccc2nc2cccc([N+](=O)[O-])c12
GI50 (M14): 1.46 nM (active)
GI50 (LXFL 529): 11.5 nM (active)
GI50 (OVCAR-5): 1.82 nM (active)
GI50 (Malme-3M): 1.85 nM (active)
GI50 (COLO 205): 0.524 nM (active)
GI50 (HOP-62): 1.49 nM (active)
GI50 (ACHN): 0.766 nM (active)
GI50 (HT-29): 1.1 nM (active)
GI50 (SK-MEL-2): 1.07 nM (active)
GI50 (LOX IMVI): 2.89 nM (active)
GI50 (OVCAR-8): 1.77 nM (active)
GI50 (NCI-H226): 21.4 nM (active)
GI50 (SN12C): 1.86 nM (active)
GI50 (DLD-1): 3.42 nM (active)
GI50 (HOP-18): 27 nM (active)
GI50 (SNB-78): 5.65 nM (active)
GI50 (HCT-116): 0.74 nM (active)
GI50 (786-0): 1.33 nM (active)
GI50 (SR): 0.447 nM (active)
GI50 (NCI-H23): 0.785 nM (active)
GI50 (HL-60): 1.43 nM (active)
GI50 (A498): 2.58 nM (active)
GI50 (RXF 393): 3.7 nM (active)
GI50 (RPMI-8226): 0.42 nM (active)
GI50 (SF-295): 1.05 nM (active)
GI50 (SK-MEL-28): 4.81 nM (active)
GI50 (T47D): 9.73 nM (active)
GI50 (NCI-H460): 0.223 nM (active)
GI50 (HCC 2998): 3.31 nM (active)
GI50 (MDA-MB-231): 0.32 nM (active)
GI50 (SF-268): 1.18 nM (active)
GI50 (XF498): 2.77 nM (active)
GI50 (M19-MEL): 5.12 nM (active)
GI50 (BT-549): 0.946 nM (active)
GI50 (UACC-257): 9.18 nM (active)
GI50 (TK-10): 3.37 nM (active)
GI50 (MDA-N): 0.187 nM (active)
GI50 (UACC-62): 1.83 nM (active)
GI50 (PC-3): 0.313 nM (active)
GI50 (SF-539): 3.6 nM (active)
GI50 (OVCAR-4): 0.653 nM (active)
GI50 (K562): 0.986 nM (active)
GI50 (SNB-75): 1.63 nM (active)
GI50 (NCI/ADR-RES): 1.19 nM (active)
GI50 (DU-145): 0.404 nM (active)
GI50 (MDA-MB-435): 0.2 nM (active)
GI50 (SK-MEL-5): 1.54 nM (active)
GI50 (SW-620): 0.877 nM (active)
GI50 (KM-20L2): 3.6 nM (active)
GI50 (U-251): 1.1 nM (active)
GI50 (SNB-19): 4.13 nM (active)
GI50 (Hs-578T): 1.97 nM (active)
GI50 (KM12): 9.57 nM (active)
GI50 (DMS-114): 2.42 nM (active)
GI50 (HOP-92): 3.29 nM (active)
GI50 (SK-OV-3): 6.07 nM (active)
GI50 (A549): 0.685 nM (active)
GI50 (OVCAR-3): 1.46 nM (active)
GI50 (CAKI-1): 2.29 nM (active)
GI50 (MCF7): 5.83 nM (active)
GI50 (IGROV-1): 2.2 nM (active)
GI50 (EKVX): 4.02 nM (active)
GI50 (CCRF-CEM): 24 nM (active)
GI50 (MOLT-4): 0.807 nM (active)
GI50 (DMS-273): 1.97 nM (active)
